Our source for the IC50 values is patent US5190937A, “Lactam derivatives” (Beecham Group p.l.c., priority 1990, dated 1993).

This test deals with T1, human lung fibroblast collagenase (Homo sapiens, UniProt P03956).
T1 construct: purified from culture supernatants from the human lung fibroblast cell line, WI-38; endogenous in cells; host or cells: WI-38 (human lung fibroblast cell line), culture supernatant, purified
T1 sequence (P03956 100-469): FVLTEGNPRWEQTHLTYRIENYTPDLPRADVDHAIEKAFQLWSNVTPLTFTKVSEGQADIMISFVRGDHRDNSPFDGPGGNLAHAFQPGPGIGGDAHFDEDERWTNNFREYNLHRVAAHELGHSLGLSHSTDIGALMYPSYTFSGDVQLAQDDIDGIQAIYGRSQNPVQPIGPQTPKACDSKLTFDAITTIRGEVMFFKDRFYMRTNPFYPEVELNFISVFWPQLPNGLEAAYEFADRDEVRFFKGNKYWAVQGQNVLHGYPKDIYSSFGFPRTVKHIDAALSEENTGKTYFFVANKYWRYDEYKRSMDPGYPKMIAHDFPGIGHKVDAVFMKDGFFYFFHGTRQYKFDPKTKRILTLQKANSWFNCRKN
As to the kind of experiment: Collagenase inhibitor assay (degradation of 3H-acetylated rat skin type I collagen). Type of test: biochemical. As to conditions: collagenase purified from WI-38 culture supernatants; 3H-acetylated rat skin type I collagen substrate; 5 min pre-incubation, 37° C. overnight; β-mercaptoethanol may be incorporated; read-out: IC50 (50% inhibitory concentration), inhibition of human lung fibroblast collagenase. Here is the method:
The test is performed essentially as in Cawston and Barrett, Anal. Biochem. 99, 340-345 (1979). Compounds for testing are dissolved in methanol by sonication and added to collagenase (purified from culture supernatants from the human lung fibroblast cell line, WI-38) in buffer. To ensure that thiol collagenase inhibitors remain unoxidised, β-mercaptoethanol may be incorporated in the methanol solvent and/or the diluent buffers to give a final concentration of 9.6×10-^5 M. The minimal direct effect of β-mercaptoethanol on the degradation of collagen by human collagenase is controlled for. After a 5 min pre-incubation at 37° C., the assay tubes are cooled to 4° C. and ^3 H-acetylated rat skin type I collagen is added. The assay tubes are incubated at 37° C. overnight. The ^3 H-collagen forms insoluble fibrils, which are the substrate for the enzyme.
To terminate the assay, the assay tubes are spun at 12000 rpm for 15 min. Undigested ^3 H-collagen is pelleted, while digested ^3 H-collagen is found as soluble peptides in the supernatant. A sample of the supernatant is taken for liquid scintillation counting.
The activity of collagenase inhibitors (IC50 :50% inhibitory concentration) is expressed as that concentration of compound that inhibits a known (standard) concentration of enzyme by 50%.

As to `COC(=O)CC(S)C(CC(C)C)C(=O)NC1CCCCCCCCCCNC1=O` (single isomer, unassigned) [Example E2A, 3-mercapto-6-methyl-4-[(2-oxoazacyclotridec-3-yl)aminocarbonyl]heptanoic acid, methyl ester], the IC50 came to 2.7 nM.

As for `CC(C)CC(C(=O)NC1CCCCCCCCCCNC1=O)C(S)CC(=O)OC(C)C` (stereo not drawn) [Example E4A], the IC50 came out at 15 nM.

With `CC(C)CC(C(=O)NC1CCCCCCCCCCNC1=O)C(S)CC(=O)O` (single isomer, unassigned) [Example E3A, 3-Mercapto-6-methyl-4-[(2-oxoazacyclotridec-3-yl)aminocarbonyl]heptanoic acid], the IC50 is 74.5 nM.
